Our source for the IC50 values is patent publication US10577363B2, “Substituted piperidine compounds” (EPIZYME, INC., priority 2014, dated 2020).

This test concerns the target SMYD3 (Homo sapiens (Human), UniProt Q9H7B4). In words: SMYD3 biochemical assay (SPA, 3H-SAM methylation of MEKK2 protein substrate). The settings on record: read-out: SMYD3 Biochem IC50 (μM)*. An outline of the steps:
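Tritium incorporation into GST-MEKK2 is counted by scintillation proximity after citric acid bead capture. Native human SMYD3 is preincubated with test compound for 30 min at room temperature at pH 8.0 (Tris-Cl, TCEP, BSG, Tween 20) before 3H-SAM and substrate are added; cold SAM at 100 uM final stops turnover.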

A value given as a limit tells only on which side of the number the result lay.

Take `C[C@H]1C[C@H](NC(=O)c2cc(C3CC3)on2)CCN1S(=O)(=O)N(C)C` [compound 346, 5-cyclopropyl-N-((2S,4R)-1-(N,N-dimethylsulfamoyl)-2-methylpiperidin-4-yl)isoxazole-3-carboxamide]: the IC50 (usually the concentration needed to halve the response being measured) is above 10 µM.
As for `CCCCS(=O)(=O)N1CC[C@@H](NC(=O)c2cc(C3CC3)on2)C[C@@H]1C` [compound 347, N-((2S,4R)-1-(butylsulfonyl)-2-methylpiperidin-4-yl)-5-cyclopropylisoxazole-3-carboxamide], the IC50 is 8.02 µM.
Take `C[C@@H]1C[C@@H](NC(=O)c2cc(C3CC3)on2)CCN1S(=O)(=O)c1ccccc1` [compound 353, 5-cyclopropyl-N-((2R,4S)-2-methyl-1-(phenylsulfonyl)piperidin-4-yl)isoxazole-3-carboxamide]: the IC50 is 3.98 µM.
In the case of `C[C@@H]1C[C@@H](NC(=O)c2cc(C3CC3)on2)CCN1S(=O)(=O)c1cccc(C#N)c1` [compound 355, N-((2R,4S)-1-((3-cyanophenyl)sulfonyl)-2-methylpiperidin-4-yl)-5-cyclopropylisoxazole-3-carboxamide], the IC50 was determined as 0.278 µM.
In the case of `NCCCC(=O)N1CCC(NC(=O)c2cc(C3CC3)on2)C(C(F)(F)F)C1` (stereo not shown) [compound 356, N-(1-(4-aminobutanoyl)-3-(trifluoromethyl)piperidin-4-yl)-5-cyclopropylisoxazole-3-carboxamide], the IC50 amounted to 1.21 µM.
The figure for `C[C@@H]1CC(NC(=O)c2cc(C3CC3)on2)CCN1C(=O)[C@@H](CN)Cc1ccc(O)cc1` (stereo partly drawn) [compound 357, N-((2R)-1-((R)-3-amino-2-(4-hydroxybenzyl)propanoyl)-2-methylpiperidin-4-yl)-5-cyclopropylisoxazole-3-carboxamide] is 1.17 µM.
The same measure for `C[C@H](C(=O)N1CC[C@@H](NC(=O)c2cc(C3CC3)on2)C[C@@H]1C)C1CCNCC1` [compound 358, 5-cyclopropyl-N-((2S,4R)-2-methyl-1-((S)-2-(piperidin-4-yl)propanoyl)piperidin-4-yl)isoxazole-3-carboxamide]: 3.4 µM; for `C[C@@H](C(=O)N1CC[C@@H](NC(=O)c2cc(C3CC3)on2)C[C@@H]1C)C1CCNCC1` [compound 359, 5-cyclopropyl-N-((2S,4R)-2-methyl-1-((R)-2-(piperidin-4-yl)propanoyl)piperidin-4-yl)isoxazole-3-carboxamide]: 1.46 µM.
As for `O=C(N[C@@H]1CCN(C(=O)CC2CCNCC2)C[C@@H]1CO)c1cc(C2CC2)on1` [compound 362, 5-cyclopropyl-N-((3S,4R)-3-(hydroxymethyl)-1-(2-(piperidin-4-yl)acetyl)piperidin-4-yl)isoxazole-3-carboxamide], the IC50 was found to be 2.95 µM.
For the compound `N[C@H]1CC[C@H](C(=O)N2CC[C@@H](NC(=O)c3cc(C4CC4)on3)C[C@@H]2CO)CC1` [compound 363, N-((2R,4R)-1-((1r,4R)-4-aminocyclohexane-1-carbonyl)-2-(hydroxymethyl)piperidin-4-yl)-5-cyclopropylisoxazole-3-carboxamide], the IC50 turned out to be 1.99 µM.
As for `N[C@H]1CC[C@H](C(=O)N2CC[C@H](NC(=O)c3cc(C4CC4)on3)C[C@H]2Cc2ccccc2)CC1` [compound 364, N-((2R,4S)-1-((1r,4R)-4-aminocyclohexane-1-carbonyl)-2-benzylpiperidin-4-yl)-5-cyclopropylisoxazole-3-carboxamide], the IC50 came to 4.57 µM.
For the compound `C[C@H]1C[C@H](NC(=O)c2cc(C3CC3)on2)CCN1C(=O)c1cccc(C(C)(C)N)c1` [compound 366, N-((2S,4R)-1-(3-(2-aminopropan-2-yl)benzoyl)-2-methylpiperidin-4-yl)-5-cyclopropylisoxazole-3-carboxamide], the IC50 is 2.75 µM.
For `C[C@H]1C[C@H](NC(=O)c2cc(C3CC3)on2)CCN1C(=O)c1ccc(C(C)(C)N)cc1` [compound 369, N-((2S,4R)-1-(4-(2-aminopropan-2-yl)benzoyl)-2-methylpiperidin-4-yl)-5-cyclopropylisoxazole-3-carboxamide], the IC50 was 5.87 µM.
Regarding `C[C@@H]1C[C@@H](NC(=O)c2cc(C3CC3)on2)CCN1C(=O)c1ccc(C(C)(C)N)cc1` [compound 371, N-((2R,4S)-1-(4-(2-aminopropan-2-yl)benzoyl)-2-methylpiperidin-4-yl)-5-cyclopropylisoxazole-3-carboxamide], the IC50 came to 4.95 µM.
For the compound `C[C@H]1C[C@H](NC(=O)c2cc(C3CC3)on2)CCN1C(=O)C1CCCC(CN)C1` (stereo partly drawn) [compound 372, N-((2S,4R)-1-(3-(aminomethyl)cyclohexane-1-carbonyl)-2-methylpiperidin-4-yl)-5-cyclopropylisoxazole-3-carboxamide], the IC50 came to 5.89 µM.
As to `C[C@@H]1C[C@@H](NC(=O)c2cc(C3CC3)on2)CCN1S(=O)(=O)Cc1cccnc1` [compound 374, 5-cyclopropyl-N-((2R,4S)-2-methyl-1-((pyridin-3-ylmethyl)sulfonyl)piperidin-4-yl)isoxazole-3-carboxamide], the IC50 was above 10 µM.
The figure for `O=C(N[C@H]1CCN(C(=O)CC2CCNCC2)[C@H](Cc2ccccc2)C1)c1cc(C2CC2)on1` [compound 375, N-((2R,4S)-2-benzyl-1-(2-(piperidin-4-yl)acetyl)piperidin-4-yl)-5-cyclopropylisoxazole-3-carboxamide] is 1.83 µM; for `O=C(N[C@@H]1CCN(C(=O)CC2CCNCC2)[C@@H](Cc2ccccc2)C1)c1cc(C2CC2)on1` [compound 376, N-((2S,4R)-2-benzyl-1-(2-(piperidin-4-yl)acetyl)piperidin-4-yl)-5-cyclopropylisoxazole-3-carboxamide] it is 1.32 µM.
In the case of `C[C@H]1C[C@H](NC(=O)c2cc(C3CC3)on2)CCN1S(=O)(=O)c1ccccc1` [compound 379, 5-cyclopropyl-N-((2S,4R)-2-methyl-1-(phenylsulfonyl)piperidin-4-yl)isoxazole-3-carboxamide], the IC50 turned out to be 3.35 µM.
`C[C@H]1C[C@H](NC(=O)c2cc(C3CC3)on2)CCN1S(=O)(=O)c1cccc(C#N)c1` [compound 380, N-((2S,4R)-1-((3-cyanophenyl)sulfonyl)-2-methylpiperidin-4-yl)-5-cyclopropylisoxazole-3-carboxamide]: the IC50 was found to be 0.323 µM.
With `N[C@H]1CC[C@H](C(=O)N2CC[C@@H](NC(=O)c3cc(C4CC4)on3)[C@H](CO)C2)CC1` [compound 382, N-((3R,4R)-1-((1r,4R)-4-aminocyclohexane-1-carbonyl)-3-(hydroxymethyl)piperidin-4-yl)-5-cyclopropylisoxazole-3-carboxamide], the IC50 worked out at 2.54 µM.
On to `O=C(N[C@@H]1CCN(C(=O)CC2CCNCC2)C[C@H]1CO)c1cc(C2CC2)on1` [compound 383, 5-cyclopropyl-N-((3R,4R)-3-(hydroxymethyl)-1-(2-(piperidin-4-yl)acetyl)piperidin-4-yl)isoxazole-3-carboxamide], for which the IC50 was 3.02 µM.
The same measure for `N[C@H]1CC[C@H](C(=O)N2CC[C@@H](NC(=O)c3cc(C4CC4)on3)C[C@H]2CO)CC1` [compound 384, N-((2S,4R)-1-((1r,4S)-4-aminocyclohexane-1-carbonyl)-2-(hydroxymethyl)piperidin-4-yl)-5-cyclopropylisoxazole-3-carboxamide]: 4.04 µM; for `C[C@@H]1CN(S(=O)(=O)CCCN)CC[C@H]1NC(=O)c1cc(C2CC2)on1` [compound 388, N-((3R,4R)-1-((3-aminopropyl)sulfonyl)-3-methylpiperidin-4-yl)-5-cyclopropylisoxazole-3-carboxamide]: 0.462 µM; for `N[C@H]1CC[C@H](C(=O)N2CC[C@@H](NC(=O)c3cc(C4CC4)on3)C[C@@H]2Cc2ccccc2)CC1` [compound 389, N-((2S,4R)-1-((1r,4S)-4-aminocyclohexane-1-carbonyl)-2-benzylpiperidin-4-yl)-5-cyclopropylisoxazole-3-carboxamide]: above 10 µM.
For `C[C@@H]1C[C@@H](NC(=O)c2cc(C3CC3)on2)CCN1C(=O)c1cccc(C(C)(C)N)c1` [compound 392, N-((2R,4S)-1-(3-(2-aminopropan-2-yl)benzoyl)-2-methylpiperidin-4-yl)-5-cyclopropylisoxazole-3-carboxamide], the IC50 is above 10 µM.
As for `COCC(C)S(=O)(=O)N1CC[C@H](NC(=O)c2cc(C3CC3)on2)C[C@@H]1C` (stereo partly drawn) [compound 393, 5-cyclopropyl-N-((2S,4S)-1-((1-methoxypropan-2-yl)sulfonyl)-2-methylpiperidin-4-yl)isoxazole-3-carboxamide], the IC50 worked out at 3.16 µM.
For `CC(C)OCCS(=O)(=O)N1CC[C@@H](NC(=O)c2cc(C3CC3)on2)C[C@@H]1C` [compound 394, 5-cyclopropyl-N-((2S,4R)-1-((2-isopropoxyethyl)sulfonyl)-2-methylpiperidin-4-yl)isoxazole-3-carboxamide], the IC50 is above 10 µM.
With `O=C(N[C@@H]1CCN(S(=O)(=O)CCN2CCCC2)[C@@H](Cc2ccccc2)C1)c1cc(C2CC2)on1` [compound 406, N-((2S,4R)-2-benzyl-1-((2-(pyrrolidin-1-yl)ethyl)sulfonyl)piperidin-4-yl)-5-cyclopropylisoxazole-3-carboxamide], the IC50 came out at 3.41 µM.
On to `O=C(N[C@H]1CCN(S(=O)(=O)CCN2CCCC2)[C@H](Cc2ccccc2)C1)c1cc(C2CC2)on1` [compound 408, N-((2R,4S)-2-benzyl-1-((2-(pyrrolidin-1-yl)ethyl)sulfonyl)piperidin-4-yl)-5-cyclopropylisoxazole-3-carboxamide], for which the IC50 came to 1.15 µM.
For the compound `O=C(N[C@@H]1CCN(S(=O)(=O)CCN2CCOCC2)[C@@H](Cc2ccccc2)C1)c1cc(C2CC2)on1` [compound 409, N-((2S,4R)-2-benzyl-1-((2-morpholinoethyl)sulfonyl)piperidin-4-yl)-5-cyclopropylisoxazole-3-carboxamide], the IC50 is above 10 µM.
